Experimental data from PubChem BioAssay (NCI).
Values joined by “and” are separate entries in the source; they are usually repeats but may differ in a detail not shown here. Equal values may be shown once.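 How tested: cells in 96-well plates exposed to compound for 48 hours at five concentrations. GI50 = concentration required for 50% inhibition of growth. TGI is the concentration that stops growth completely.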

Experiments:
Test in all cases: NCI tumour cell line growth inhibition, 48 h
[1] = system: DMS 114 small cell lung
[2] = system: XF 498 CNS
[3] = system: RXF-631 renal
[4] = system: DLD-1 colon
[5] = system: M19-MEL melanoma
[6] = system: HOP-18 NSCLC
[7] = system: SNB-78 CNS
[8] = system: DMS 273 small cell lung
[9] = system: MDA-N

Row | Structure (SMILES) | TGI [1] [µM] | TGI [2] | TGI [3] | TGI [4] [µM] | TGI [5] | TGI [6] [µM] | TGI [7] | TGI [8] [µM] | TGI [9] [µM] | other results
1 | CC(C)CCC1CC2C(=O)N(c3ccccc3)C(=O)C2c2[nH]c3ccccc3c21 (stereo unspecified) | 2.81 | 6.08 µM | 13.8 µM | 15 | 20 µM | 21.6 | 25.6 µM | 2.72 |  | 
2 | O=[N+]([O-])c1cccc(C2=NN(c3ccccc3)C[N+](c3ccc(Br)cc3)=N2)c1 |  | > 100 µM |  | > 100 | > 100 µM | > 100 | > 100 µM | > 100 |  | 
3 | O=C(/C=C/c1ccccc1)CCC1C(=O)c2ccccc2C1=O |  |  |  |  |  |  |  |  | > 100 | 
4 | O=C(Nc1ccn(CCO)c(=O)n1)c1ccccc1 | > 100 |  | > 100 µM | > 100 | > 100 µM | > 100 | > 100 µM | > 100 |  | 
5 | C(=NCCN1CCOCC1)=NC1CCCCC1 |  |  |  |  |  |  |  |  | > 100 | 
6 | CCCCCCCCCCCCCC(=O)OCC(C[As](=O)(O)O)OC(=O)CCCCCCCCCCCCC (stereo unspecified) | > 100 | > 100 µM | > 100 µM | > 100 |  | > 100 | > 100 µM | > 100 |  | 
7 | O=C(Nc1ccc2ncccc2c1)Nc1ccc2ncccc2c1 |  |  |  |  |  |  |  |  | > 100 | 
8 | Cc1c2n(c(=O)[nH]c1=O)C1OC(CO)C(O2)C1O (stereo unspecified) | > 100 |  |  | > 100 | > 100 µM |  | > 100 µM | > 100 |  | 
9 | N#CN/C(N)=N/CO | > 60.9 | > 100 µM | > 100 µM | > 87.8 | > 100 µM | > 100 | > 100 µM | > 100 |  | 
10 | O=c1/c(=C/c2ccccc2[N+](=O)[O-])sc2nnc(-c3ccco3)n12 | 40.4 | 34.5 µM |  | 97.1 | 38.3 µM | 57.8 | 72.3 µM | > 100 |  | 
11 | CCOC(=O)c1cnc2c(ccc3[nH]n(C)nc32)c1=O | > 100 | > 100 µM | > 100 µM | > 100 | > 100 µM | > 100 | 38.6 µM | 73.4 |  | 
12 | CC(=O)CCn1c(=S)sc2ccccc21 |  |  |  |  |  |  |  |  | > 100 | 
13 | O=C1CCC2(c3ccc(Cl)cc3)Nc3ncccc3N12 (stereo unspecified) | > 100 | > 100 µM |  | > 100 | > 100 µM |  | > 100 µM |  |  | 
14 | Clc1ccc2c(c1)[nH]c1c2nc2ccccn21 |  | 89.1 µM and 29.8 µM | > 100 µM and 69.2 µM |  | > 100 µM and 47.6 µM | > 100 | 83.9 µM and 61.6 µM |  |  | GI50 [2]: 35.9 µM and 16 µM; GI50 [5]: 42.3 µM and 20.1 µM; GI50 [6]: 41.9 µM
15 | CCC(=O)CC(=O)CCC(=O)Nc1cc(C)ccc1C |  | > 100 µM |  | > 100 |  | > 100 | > 100 µM |  |  | 
16 | CC1(C)CC(=O)C(C=NC(=S)c2ccccc2)=C(O)C1 |  |  |  |  |  |  |  |  | > 100 | 
17 | CCOC(=O)c1ccc(NC(=O)Oc2ccc3c(C)cc(=O)oc3c2)cc1 |  |  |  |  |  |  |  |  | > 100 | 
18 | O=CCC1CCCCC1 |  |  |  |  |  |  |  |  | > 100 | 
19 | CN1CC(=O)N2Cc3ccccc3-n3cccc3C2C1 (stereo unspecified) |  | > 100 µM | > 100 µM | > 100 | > 100 µM | 91.7 | > 100 µM | > 100 |  | 
20 | CCCCOC(=O)CNC(=O)OC/C=C/C#CC#C/C=C/COC(=O)NCC(=O)OCCCC | > 100 | > 10 µM | > 100 µM | > 100 | > 100 µM | > 10 | > 10 µM |  |  | GI50 [1]: > 100 µM; GI50 [3]: > 100 µM; GI50 [4]: > 100 µM; GI50 [5]: > 100 µM
21 | CC(=O)CCn1ncc(Cl)c(Cl)c1=O |  | 35.5 µM |  | 29.9 | 17.2 µM | 30.5 | 43 µM | 32 |  | 
22 | Nc1nc(Cl)cc(NCCCCCCCCNc2cc(Cl)nc(N)n2)n1 |  | 13.7 µM |  | > 100 | > 100 µM | > 100 | > 100 µM | > 100 |  | 
23 | CC1(C)S[C@@H]2[C@H](NC(=O)C3(N)CCCCC3)C(=O)N2[C@H]1C(=O)O |  |  |  |  |  |  |  |  | > 100 | 
